Source: patent US11090304B2 (Amgen Inc., priority 2018, dated 2021)

Biological target: GDP-bound KRAS protein (aa 1-169), containing both G12C and C118A amino acid substitutions (Homo sapiens, UniProt P01116, C118A/G12C)
Test: Coupled nucleotide exchange assay (SOS-mediated, AlphaScreen)
Format: biochemical
Settings: 5 min compound pre-incubation

GDP-bound KRAS protein (aa 1-169), containing both G12C and C118A amino acid substitutions, sequence (P01116 1-169 isoform P01116-2 G12C/C118A): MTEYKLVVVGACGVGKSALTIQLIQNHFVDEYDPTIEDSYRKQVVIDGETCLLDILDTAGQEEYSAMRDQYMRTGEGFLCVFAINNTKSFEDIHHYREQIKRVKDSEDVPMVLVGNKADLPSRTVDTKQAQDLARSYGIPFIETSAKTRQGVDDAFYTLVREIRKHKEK

Q: How did the “Coupled exchange IC50 (5 min)” value turn out when `C=CC(=O)N1CCN(c2nc(=O)n(-c3ccccc3OC(F)(F)F)c3nc(-c4c(O)cccc4F)c(Cl)cc23)[C@@H](C)C1` [Example 54-49, 6-chloro-7-(2-fluoro-6-hydroxyphenyl)-4-((2S)-2-methyl-4-(2-propenoyl)-1-piperazinyl)-1-(2-(trifluoromethoxy)phenyl) pyrido[2,3-d]pyrimidin-2(1H)-one] was run?
A: The value was 5.65 | nda μM.

Q: How did the “Coupled exchange IC50 (5 min)” value turn out when `C=CC(=O)N1C[C@@H]2C[C@H]1CN2c1nc(=O)n(-c2ccccc2C(C)C)c2nc(-c3c(O)cccc3F)c(Cl)cc12` [Example 54-50, 4-((1S,4S)-5-acryloyl-2,5-diazabicyclo [2.2.1]heptan-2-yl)-6-chloro-7-(2-fluoro-6-hydroxyphenyl)-1-(2-isopropylphenyl) pyrido [2,3-d]pyrimidin-2(1H)-one] was run?
A: The value was 88.8 | nda μM.

Q: For `C=CC(=O)N1CCN(c2nc(=O)n(-c3ccccc3S(C)(=O)=O)c3nc(-c4c(O)cccc4F)c(Cl)cc23)[C@@H](C)C1` [Example 54-56, 6-chloro-7-(2-fluoro-6-hydroxyphenyl)-4-((2S)-2-methyl-4-(2-propenoyl)-1-piperazinyl)-1-(2-(methylsulfonyl)phenyl) pyrido[2,3-d]pyrimidin-2(1H)-one], which “Coupled exchange IC50 (5 min)” value is on record?
A: Its value is 1.42 | nda μM.

Q: For `C=CC(=O)N1CCN(c2nc(=O)n(-c3ccccc3S(C)(=O)=O)c3nc(-c4c(O)cccc4F)c(Cl)cc23)[C@@H](C)C1` [Example 54-56-1], which “Coupled exchange IC50 (5 min)” value is on record?
A: The value was 2.49 | nda μM.

Q: How did the “Coupled exchange IC50 (5 min)” value turn out when `C=CC(=O)N1CCN(c2nc(=O)n(-c3ccccc3C#N)c3nc(-c4c(O)cccc4F)c(Cl)cc23)[C@@H](C)C1` [Example 54-58, 2-(6-chloro-7-(2-fluoro-6-hydroxyphenyl)-4-((2S)-2-methyl-4-(2-propenoyl)-1-piperazinyl)-2-oxopyrido[2,3-d]pyrimidin-1(2H)-yl)benzonitrile] was run?
A: The value was 3.44 | nda μM.

Q: How did the “Coupled exchange IC50 (5 min)” value turn out when `C=CC(=O)N1CCN(c2nc(=O)n(-c3c(OC)cccc3OC)c3nc(-c4ccccc4F)c(Cl)cc23)[C@@H](C)C1` [Example 54-68, 6-chloro-1-(2,6-dimethoxy-phenyl)-7-(2-fluorophenyl)-4-((2S)-2-methyl-4-(2-propenoyl)-1-piperazinyl) pyrido[2,3-d]pyrimidin-2(1H)-one] was run?
A: Its value is 4.65 | nda μM.

Q: Which “Coupled exchange IC50 (5 min)” value does the source give for `C=CC(=O)N1CCN(c2nc(=O)n(-c3ccccc3C(C)C)c3nc(C4=CCCCC4)c(Cl)cc23)[C@@H](C)C1` [Example 54-75, 6-chloro-7-(1-cyclohexen-1-yl)-4-((2S)-2-methyl-4-(2-propenoyl)-1-piperazinyl)-1-(2-(2-propanyl)phenyl)pyrido [2,3-d]pyrimidin-2(1H)-one] here?
A: Its value is 1.08 | nda μM.

Q: Which “Coupled exchange IC50 (5 min)” value does the source give for `C=CC(=O)N1CCN(c2nc(=O)n(-c3ccccc3C(C)C)c3nc(C4=CCCOC4)c(Cl)cc23)[C@@H](C)C1` [Example 54-76, 6-chloro-7-(5,6-dihydro-2H-pyran-3-yl)-4-((2S)-2-methyl-4-(2-propenoyl)-1-piperazinyl)-1-(2-(2-propanyl)phenyl)pyrido [2,3-d]pyrimidin-2(1H)-one] here?
A: Its value is 5.48 | nda μM.

Q: Which “Coupled exchange IC50 (5 min)” value does the source give for `C=CC(=O)N1CCN(c2nc(=O)n(-c3ccccc3C(C)C)c3nc(-c4ncccc4F)c(Cl)cc23)[C@@H](C)C1` [Example 54-92, 6-chloro-7-(3-fluoro-2-pyridinyl)-4-((2S)-2-methyl-4-(2-propenoyl)-1-piperazinyl)-1-(2-(2-propanyl)phenyl)pyrido [2,3-d]pyrimidin-2(1H)-one] here?
A: Its value is 1.27 | nda μM.

Q: For `C=CC(=O)N1CCN(c2nc(=O)n(-c3ccccc3C(C)C)c3nc(-c4ncc(F)cc4F)c(Cl)cc23)[C@@H](C)C1` [Example 54-93, 6-chloro-7-(3,5-difluoro-2-pyridinyl)-4-((2S)-2-methyl-4-(2-propenoyl)-1-piperazinyl)-1-(2-(2-propanyl)phenyl)pyrido [2,3-d]pyrimidin-2(1H)-one], which “Coupled exchange IC50 (5 min)” value is on record?
A: The value was 1.43 | nda μM.

Q: With `C=CC(=O)N1CCN(c2nc(=O)n(-c3ccccc3C(C)C)c3nc(-c4ncccc4Cl)c(Cl)cc23)[C@@H](C)C1` [Example 54-94, 6-chloro-7-(3-chloro-2-pyridinyl)-4-((2S)-2-methyl-4-(2-propenoyl)-1-piperazinyl)-1-(2-(2-propanyl)phenyl)pyrido [2,3-d]pyrimidin-2(1H)-one] as the compound, how does the “Coupled exchange IC50 (5 min)” value read?
A: The value was 1.19 | nda μM.

Q: `C=CC(=O)N1CCN(c2nc(=O)n(-c3ccccc3C3(C)CC3)c3nc(Cl)c(Cl)cc23)[C@@H](C)C1` [Example 54-98] was tested. Which “Coupled exchange IC50 (5 min)” value did it give?
A: Its value is 5.45 | nda μM.

Q: How did the “Coupled exchange IC50 (5 min)” value turn out when `C=CC(=O)N1CCN(c2nc(=O)n(-c3ccccc3N3CCOCC3)c3nc(-c4c(O)cccc4F)c(Cl)cc23)[C@@H](C)C1` [Example 54-100, 6-chloro-7-(2-fluoro-6-hydroxyphenyl)-4-((2S)-2-methyl-4-(2-propenoyl)-1-piperazinyl)-1-(2-(4-morpholinyl)phenyl) pyrido[2,3-d] pyrimidin-2(1H)-one] was run?
A: The value was 2.51 | nda μM.

Q: How did the “Coupled exchange IC50 (5 min)” value turn out when `C=CC(=O)N1CCN(c2nc(=O)n(-c3c(CC)n[nH]c3CC)c3nc(-c4ccccc4F)c(Cl)cc23)[C@@H](C)C1` [Example 54-106] was run?
A: The value was 0.51 | nda μM.

Q: How did the “Coupled exchange IC50 (5 min)” value turn out when `C=CC(=O)N1CCN(c2nc(=O)n(-c3c[nH]cc3C(C)C)c3nc(-c4ccccc4F)c(Cl)cc23)[C@@H](C)C1` [Example 54-109, 6-chloro-7-(2-fluorophenyl)-4-((2S)-2-methyl-4-(2-propenoyl)-1-piperazinyl)-1-(4-(2-propanyl)-1H-pyrrol-3-yl)pyrido[2,3-d]pyrimidin-2(1H)-one] was run?
A: The value was 0.355 | nda μM.

Q: How did the “Coupled exchange IC50 (5 min)” value turn out when `C=CC(=O)N1CCN(c2nc(=O)n(-c3c(C)ccnc3N(C)C)c3nc(-c4ccccc4F)c(Cl)cc23)[C@@H](C)C1` [Example 55-7] was run?
A: Its value is 0.806 | nda μM.

Q: For `C=CC(=O)N1CCN(c2nc(=O)n(-c3nccc4c3CCCC4)c3nc(-c4c(O)cccc4F)c(Cl)cc23)[C@@H](C)C1` [Example 55-25, 6-chloro-7-(2-fluoro-6-hydroxyphenyl)-4-((2S)-2-methyl-4-(2-propenoyl)-1-piperazinyl)-1-(5,6,7,8-tetrahydro-1-isoquinolinyl)pyrido[2,3-d]pyrimidin-2(1H)-one], which “Coupled exchange IC50 (5 min)” value is on record?
A: Its value is 2.29 | nda μM.

Q: Which “Coupled exchange IC50 (5 min)” value does the source give for `C=CC(=O)N1CCN(c2nc(=O)n(-c3c(CC)cccc3CC)c3nc(-c4cccnc4)c(Cl)cc23)[C@@H](C)C1` [Example 55-28, 6-chloro-1-(2,6-diethylphenyl)-4-((2S)-2-methyl-4-(2-propenoyl)-1-piperazinyl)-7-(3-pyridinyl)pyrido[2,3-d]pyrimidin-2(1H)-one] here?
A: Its value is 12.9 | nda μM.

Q: `C=CC(=O)N1CCN(c2nc(=O)n(-c3c(CC)cccc3CC)c3nc(-c4cccnc4C)c(Cl)cc23)[C@@H](C)C1` [Example 55-29, 6-chloro-1-(2,6-diethylphenyl)-4-((2S)-2-methyl-4-(2-propenoyl)-1-piperazinyl)-7-(2-methyl-3-pyridinyl)pyrido[2,3-d]pyrimidin-2(1H)-one] was tested. Which “Coupled exchange IC50 (5 min)” value did it give?
A: Its value is 7.19 | nda μM.

Same assay, conditions: 2 h compound pre-incubation

Q: How did the “Coupled exchange IC50 (2 h)” value turn out when `C=CC(=O)N1CCN(c2nc(=O)n(-c3c(CC)cccc3CC)c3nc(Oc4cccc(F)c4)c(Cl)cc23)[C@@H](C)C1` [Example 54-64, 6-chloro-1-(2,6-diethylphenyl)-7-(3-fluorophenoxy)-4-((2S)-2-methyl-4-(2-propenoyl)-1-piperazinyl) pyrido[2,3-d]pyrimidin-2(1H)-one] was run?
A: The value was “nda | 7.97 μM”.
